Laboratory results reported in patent publication US20260138978A1, “POSITIVE ALLOSTERIC MODULATORS OF THE MUSCARINIC ACETYLCHOLINE RECEPTOR M1” (Vanderbilt University, priority 2022, published 2026).

Assays:
[1] = target: T1, human mAChRM1 (Homo sapiens, UniProt P11229); test: mAChR M1 cell-based functional assay (calcium mobilization), agonist activity upon compound addition, Emax relative to acetylcholine maximum; conditions: for Agonist Activity Human M1 EC50 / EC50: calcium mobilization upon compound addition; for Emax: relative to the maximum for acetylcholine
T1 construct: host or cells: CHO-K1
T1 sequence (P11229 1-460): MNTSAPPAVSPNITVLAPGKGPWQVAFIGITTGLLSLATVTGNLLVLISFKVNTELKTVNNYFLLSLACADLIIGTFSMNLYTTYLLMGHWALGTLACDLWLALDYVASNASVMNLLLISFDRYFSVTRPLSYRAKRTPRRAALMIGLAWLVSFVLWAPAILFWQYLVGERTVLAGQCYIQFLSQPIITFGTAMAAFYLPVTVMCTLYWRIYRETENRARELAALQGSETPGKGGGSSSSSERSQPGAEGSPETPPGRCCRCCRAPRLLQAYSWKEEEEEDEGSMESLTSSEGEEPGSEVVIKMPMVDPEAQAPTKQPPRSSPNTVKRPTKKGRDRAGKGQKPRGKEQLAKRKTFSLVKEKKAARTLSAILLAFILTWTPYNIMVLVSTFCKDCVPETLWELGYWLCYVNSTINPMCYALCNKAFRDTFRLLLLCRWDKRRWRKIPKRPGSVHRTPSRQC
From the text: Lack of agonist activity may be measured as weak or no increase in calcium fluorescence in mAChRM1-transfected CHO-K1 cells in the presence of the compound, compared to the response of equivalent CHO-K1 cells in the absence of the compound. Lack of mAChRM1 agonist activity may be determined as a percent response relative to acetylcholine. For example, a disclosed compound may have less than or equal to 30%, 25%, 20%, 15%, 10%, 5%, or 1% mAChRM1 agonist activity relative to acetylcholine. A disclosed compound may have substantially no mAChRM1 agonist activity. […] The absence of mAChRM1 agonist activity may contribute to the avoidance of cholinergic adverse effect liability.
(§1) Chinese hamster ovary (CHO-K1) cells stably expressing rat (r)M1 were purchased from the American Type Culture Collection and cultured according to their indicated protocol. CHO cells stably expressing human (h)M2, hM3, and hM5 were described previously (Levey, et al., 1991); hM1 and hM4 cDNAs were purchased from Missouri S&T cDNA Resource; rM4 cDNA was provided by T. I. Bonner (National Institutes of Health, Bethesda, MD). rM2 and rM3 were cloned from a rat brain cDNA library and sequence verified. hM1, rM2, rM3, hM4, and rM4 cDNAs were used to stably transfect CHO-K1 cells purchased from the American Type Culture Collection using Lipofectamine 2000. To make stable rM2, hM2, rM3, hM4. and rM4 cell lines for use in calcium mobilization assays, these cells also were stably transfected with a chimeric G-protein (Gqi5) (provided by B. R. Conklin, University of California, San Francisco) using Lipofectamine 2000. rM1, hM1, rM3, hM3, rM5, and hM5 cells were grown in Ham's F-12 medium containing 10% heat-inactivated fetal bovine serum (FBS), 20 mM HEPES, and 50 μg/mL G418 sulfate. rM2-Gqi5, hM2-Gqi5, and hM4-Gqi5 cells were grown in the same medium also containing 500 µg/mL Hygromycin B. Stable rM4-Gqi5 cells were grown in DMEM containing 10% heat-inactivated FBS, 20 mM HEPES, 400 μg/mL G418 sulfate, and 500 μg/mL Hygromycin B.
(§2) For high throughput measurement of agonist-evoked increases in intracellular calcium, CHO-K1 cells stably expressing muscarinic receptors were plated in growth medium lacking G418 and hygromycin at 15,000 cells/[…] in Greiner 384-well black-walled, tissue culture (TC)-treated, clear-bottom plates (VWR). Cells were incubated overnight at 37° C. and 5% CO2. The next day, cells were washed using an ELX 405 (BioTek) with four washes (80 μL) of assay buffer then aspirated to 20 μL. Next, 20 μL of 16 μM Fluo-4/acetoxymethyl ester (Invitrogen, Carlsbad, CA) prepared as a 2.3 mM stock in DMSO and mixed in a 1:1 ratio with 10% (w/v) Pluronic F-127 and diluted in assay buffer was added to the wells and the cell plates were incubated for 50 min at 37° C. and 5% CO2. Dye was removed by washing with the ELX 405 (four 80 μL washes of assay buffer) then aspirated to 20 μL. Compound master plates were formatted in an 11 point CR^c format (1:3 dilutions) in 100% DMSO with a starting concentration of 10 mM using the BRAVO liquid handler (Agilent). Test compound CRCs were then transferred to daughter plates (240 nL) using the Echo acoustic plate reformatter (Labcyte, Sunnyvale, CA) and then diluted into assay buffer ([…]) to a 2× stock using a Thermo Fisher Combi (Thermo Fisher Scientific, Waltham, MA).
Calcium flux was measured using the Functional Drug Screening System (FDSS) 6000 (Hamamatsu Corporation, Tokyo, Japan) as an increase in the fluorescent static ratio. Compounds were applied to cells (20 μL, 2×) using the automated system of the FDSS 6000 at 4 s into the 300 s protocol and the data were collected at 1 Hz. […] Agonist activity was analyzed as a concentration-dependent increase in calcium mobilization upon compound addition. Emax values for agonist activity are expressed relative to the maximum for acetylcholine. Positive allosteric modulator activity was analyzed as a concentration-dependent increase in the EC20 acetylcholine response. […]

[2] = target: T1, human mAChRM1; test: mAChR M1 cell-based functional assay (calcium mobilization), positive allosteric modulator activity: increase in the EC20 acetylcholine response; conditions: for Emax: PAM mode; for EC50: read-out: PAM Activity Human M1 EC50
From the text: as §1, §2
Calcium flux was measured using the Functional Drug Screening System (FDSS) 6000 (Hamamatsu Corporation, Tokyo, Japan) as an increase in the fluorescent static ratio. Compounds were applied to cells (20 μL, 2×) using the automated system of the FDSS 6000 at 4 s into the 300 s protocol and the data were collected at 1 Hz. […] Agonist activity was analyzed as a concentration-dependent increase in calcium mobilization upon compound addition. Emax values for agonist activity are expressed relative to the maximum for acetylcholine. Positive allosteric modulator activity was analyzed as a concentration-dependent increase in the EC20 acetylcholine response. Antagonist activity was analyzed as a concentration-dependent decrease in the EC80 acetylcholine response. Concentration-response curves were generated using a four-parameter logistical equation in XLfit curve fitting software (IDBS, Bridgewater, NJ) for Excel (Microsoft, Redmond, WA) or Prism (GraphPad Software, Inc., San Diego, CA).
Activity (EC50 and Emax) was determined in the mAChRM1 cell-based functional assay as described above and the data are shown in Table 16. The compound numbers correspond to the compound numbers used in Table 15.

[3] = increase in the EC20 acetylcholine response

Row | SMILES | Agonist Activity Human M1 EC50 [1] | Emax [2] | EC50 [2, 3] | PAM Activity Human M1 EC50 [2, 3] | EC50 [1] | Emax [1]
1 | Cc1cc(-c2cc(C(C)(C)O)c3cn(C)nc3c2)cc(F)c1CN1Cc2ncccc2C1=O [Compound 20, 6-(2-fluoro-4-(4-(2-hydroxypropan-2-yl)-2-methyl-2H-indazol-6-yl)-6-methylbenzyl)-6,7-dihydro-5H-pyrrolo[3,4-b]pyridin-5-one] | inactive | 47% | ≥ 10 µM | – | – | –
2 | Cn1cc2c(C(C)(C)O)cc(-c3ccc(CN4Cc5ncccc5C4=O)c(F)c3)cc2n1 [Compound 21, 6-(2-fluoro-4-(4-(2-hydroxypropan-2-yl)-2-methyl-2H-indazol-6-yl)benzyl)-6,7-dihydro-5H-pyrrolo[3,4-b]pyridin-5-one] | inactive | 50% | ≥ 10 µM | – | – | –
3 | Cc1cc(-c2cc(C(C)(C)O)c3cn(C)nc3c2)ccc1CN1Cc2ncccc2C1=O [Compound 22, 6-(4-(4-(2-hydroxypropan-2-yl)-2-methyl-2H-indazol-6-yl)-2-methylbenzyl)-6,7-dihydro-5H-pyrrolo[3,4-b]pyridin-5-one] | inactive | – | – | inactive | – | –
4 | Cn1cc2c(C(C)(C)O)cc(-c3ccc(CN4Cc5ncccc5C4=O)cc3)cc2n1 [Compound 23, 6-(4-(4-(2-hydroxypropan-2-yl)-2-methyl-2H-indazol-6-yl)benzyl)-6,7-dihydro-5H-pyrrolo[3,4-b]pyridin-5-one] | inactive | 48% | ≥ 10 µM | – | – | –
5 | Cn1cc2c(-c3cc(F)c(CN4Cc5ncccc5C4=O)c(F)c3)cc(C(C)(C)O)cc2n1 [Compound 24, 6-(2,6-Difluoro-4-(6-(2-hydroxypropan-2-yl)-2-methyl-2H-indazol-4-yl)benzyl)-6,7-dihydro-5H-pyrrolo[3,4-b]pyridin-5-one] | inactive | 81% | 1.92 µM | – | – | –
6 | Cc1cc(-c2cc(C(C)(C)O)cc3nn(C)cc23)cc(F)c1CN1Cc2ncccc2C1=O [Compound 25, 6-(2-fluoro-4-(6-(2-hydroxypropan-2-yl)-2-methyl-2H-indazol-4-yl)-6-methylbenzyl)-6,7-dihydro-5H-pyrrolo[3,4-b]pyridin-5-one] | inactive | 76% | 2.52 µM | – | – | –
7 | Cn1cc2c(-c3ccc(CN4Cc5ncccc5C4=O)c(F)c3)cc(C(C)(C)O)cc2n1 [Compound 26, 6-(2-fluoro-4-(6-(2-hydroxypropan-2-yl)-2-methyl-2H-indazol-4-yl)benzyl)-6,7-dihydro-5H-pyrrolo[3,4-b]pyridin-5-one] | inactive | 83% | 1.28 µM | – | – | –
8 | Cc1cc(-c2cc(C(C)(C)O)cc3nn(C)cc23)ccc1CN1Cc2ncccc2C1=O [Compound 27, 6-(4-(6-(2-hydroxypropan-2-yl)-2-methyl-2H-indazol-4-yl)-2-methylbenzyl)-6,7-dihydro-5H-pyrrolo[3,4-b]pyridin-5-one] | inactive | 83% | 3.28 µM | – | – | –
9 | Cn1cc(-c2cc(F)c(CN3Cc4ncccc4C3=O)c(F)c2)c(C(C)(C)O)n1 [Compound 28, 6-(2,6-difluoro-4-(3-(2-hydroxypropan-2-yl)-1-methyl-1H-pyrazol-4-yl)benzyl)-6,7-dihydro-5H-pyrrolo[3,4-b]pyridin-5-one] | inactive | 55% | ≥ 10 µM | – | – | –
10 | Cn1cc(-c2ccc(CN3Cc4ncccc4C3=O)c(F)c2)c(C(C)(C)O)n1 [Compound 29, 6-(2-fluoro-4-(3-(2-hydroxypropan-2-yl)-1-methyl-1H-pyrazol-4-yl)benzyl)-6,7-dihydro-5H-pyrrolo[3,4-b]pyridin-5-one] | inactive | 56% | ≥ 10 µM | – | – | –
11 | Cc1cc(-c2cn(C)nc2C(C)(C)O)cc(F)c1CN1Cc2ncccc2C1=O [Compound 30, 6-(2-fluoro-4-(3-(2-hydroxypropan-2-yl)-1-methyl-1H-pyrazol-4-yl)-6-methylbenzyl)-6,7-dihydro-5H-pyrrolo[3,4-b]pyridin-5-one] | inactive | 51% | ≥ 10 µM | – | – | –
12 | Cc1cc(-c2cn(C)nc2C(C)(C)O)ccc1CN1Cc2ncccc2C1=O [Compound 31, 6-(4-(3-(2-hydroxypropan-2-yl)-1-methyl-1H-pyrazol-4-yl)-2-methylbenzyl)-6,7-dihydro-5H-pyrrolo[3,4-b]pyridin-5-one] | inactive | 47% | ≥ 10 µM | – | – | –
13 | Cn1cc(-c2ccc(CN3Cc4ncccc4C3=O)cc2)c(C(C)(C)O)n1 [Compound 32, 6-(4-(3-(2-hydroxypropan-2-yl)-1-methyl-1H-pyrazol-4-yl)benzyl)-6,7-dihydro-5H-pyrrolo[3,4-b]pyridin-5-one] | inactive | 48% | ≥ 10 µM | – | – | –
14 | Cn1cc2cc(-c3cc(F)c(CN4Cc5ncccc5C4=O)c(F)c3)cc(C(C)(C)O)c2n1 [Compound 33, 6-(2,6-difluoro-4-(7-(2-hydroxypropan-2-yl)-2-methyl-2H-indazol-5-yl)benzyl)-6,7-dihydro-5H-pyrrolo[3,4-b]pyridin-5-one] | – | 66% | 0.297 µM | – | ≥ 10 µM | 21%
15 | Cn1cc2cc(-c3ccc(CN4Cc5ncccc5C4=O)c(F)c3)cc(C(C)(C)O)c2n1 [Compound 34, 6-(2-fluoro-4-(7-(2-hydroxypropan-2-yl)-2-methyl-2H-indazol-5-yl)benzyl)-6,7-dihydro-5H-pyrrolo[3,4-b]pyridin-5-one] | – | 65% | 0.326 µM | – | ≥ 10 µM | 17%
